Results from patent US20210040118A1, “IMMUNOMODULATORS, COMPOSITIONS AND METHODS THEREOF” (BETTA PHARMACEUTICALS CO., LTD, priority 2018, published 2021).

Biological target: T1, PD-1/PD-L1 (Homo sapiens, UniProt Q9NZQ7)
T1 construct: Recombinant human PD-L1 protein (19-238) with a His-tag at the C-terminus; purchased AcroBiosystems PD1-H5229 (PD-L1); PD1-H5257 (PD-1)
Test: PD-1/PD-L1 homogenous time-resolved fluorescence (HTRF) binding assay
Conditions: recombinant human PD-L1 (19-238) His-tag / human PD-1 (25-167) Fc tag, class symbols
Summary of the method: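 Inhibitors were preincubated 40 min at 25°C with 10 nM His-tagged human PD-L1 (19-238) and 3 nM Fc-tagged human PD-1 (25-167) in PBS pH 7.4 containing Tween-20, BSA and 1% DMSO. After 60 min with europium anti-human IgG and anti-His-APC, 665/620 nm signal ratio gave IC50 via percent-control fit.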

T1 sequence (Q9NZQ7 19-238): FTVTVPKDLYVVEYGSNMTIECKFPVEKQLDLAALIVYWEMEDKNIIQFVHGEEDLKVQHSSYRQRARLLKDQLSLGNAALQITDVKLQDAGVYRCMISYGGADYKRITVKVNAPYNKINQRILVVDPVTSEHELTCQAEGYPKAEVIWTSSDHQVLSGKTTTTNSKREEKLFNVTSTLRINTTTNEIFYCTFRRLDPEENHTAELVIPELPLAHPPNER

| IC50 | Compound |
| --- | --- |
| < 25 nM | Cc1c(NC(=O)c2nc3c(s2)CN(CCO)CC3)cccc1-c1cccc(NC(=O)c2nc3c(s2)CN(CCO)CC3)c1C [Example 82, N,N′-(2,2′-dimethyl-[1,1′-biphenyl]-3,3′-diyl)bis(5-(2-hydroxyethyl)-4,5,6,7-tetrahydrothiazolo[5,4-c]pyridine-2-carboxamide)] |
| < 25 nM | Cc1ccc(-c2ccc(C)c(NC(=O)c3nc4c(s3)CNCC4)c2C)c(C)c1NC(=O)c1nc2c(s1)CNCC2 [Example 94, N,N′-(2,2′,4,4′-tetramethyl-[1,1′-biphenyl]-3,3′-diyl)bis(4,5,6,7-tetrahydrothiazolo[5,4-c]pyridine-2-carboxamide)] |
| < 25 nM | Cc1c(NC(=O)c2cnc(C(C)NCCO)cn2)cccc1-c1cccc(NC(=O)c2cnc(C(C)NCCO)cn2)c1C (stereo not shown) [Example 181, N,N′-(2,2′-dimethyl-[1,1′-biphenyl]-3,3′-diyl)bis(5-(1-((2-hydroxyethyl)amino)ethyl)pyrazine-2-carboxamide)] |
| < 25 nM | Cc1c(NC(=O)c2ccc3c(n2)CCN(CCO)C3)cccc1-c1cccc(NC(=O)c2ccc3c(n2)CCN(CCO)C3)c1C [Example 174, N,N′-(2,2′-dimethyl-[1,1′-biphenyl]-3,3′-diyl)bis(6-(2-hydroxyethyl)-5,6,7,8-tetrahydro-1,6-naphthyridine-2-carboxamide)] |
| < 25 nM | Cc1c(Nc2nccc3cc(CNCCO)cnc23)cccc1-c1cccc(Nc2nccc3cc(CNCC(=O)O)cnc23)c1C [Example 139, ((8-((3′-((3-(((2-hydroxyethyl)amino)methyl)-1,7-naphthyridin-8-yl)amino)-2,2′-dimethyl-[1,1′-biphenyl]-3-yl)amino)-1,7-naphthyridin-3-yl)methyl)glycine] |
| < 25 nM | O=C(Nc1cccc(-c2cccc(NC(=O)c3ncc(CN[C@H](C(=O)O)C4CCOCC4)s3)c2Cl)c1Cl)c1ncc(CN[C@H](C(=O)O)C2CCOCC2)s1 [Example 71, (2S,2'S)-2,2′-((((((2,2′-dichloro-[1,1′-biphenyl]-3,3′-diyl)bis(azanediyl))bis(carbonyl))bis(thiazole-2,5-diyl))bis(methylene))bis(azanediyl))bis(2-(tetrahydro-2H-pyran-4-yl)acetic acid)] |
| < 25 nM | Cc1c(Nc2nccc3cc(CNC[C@@H](O)CC(=O)O)cnc23)cccc1-c1cccc(Nc2nccc3cc(CNC[C@@H](O)CC(=O)O)cnc23)c1C [Example 143, (3S,3'S)-4,4′-(((((2,2′-dimethyl-[1,1′-biphenyl]-3,3′-diyl)bis(azanediyl))bis(1,7-naphthyridine-8,3-diyl))bis(methylene))bis(azanediyl))bis(3-hydroxybutanoic acid)] |
| < 25 nM | Cc1c(Nc2nccc3cc(CN4CC[C@H](N(C)C)C4)cnc23)cccc1-c1cccc(Nc2nccc3cc(CN4CC[C@H](N(C)C)C4)cnc23)c1C [Example 153, N3,N3′-bis(3-(((S)-3-(dimethylamino)pyrrolidin-1-yl)methyl)-1,7-naphthyridin-8-yl)-2,2′-dimethyl-[1,1′-biphenyl]-3,3′-diamine] |
| 25 to 100 nM | CCOC(=O)CNC(C)c1cnc(C(=O)Nc2cccc(-c3cccc(NC(=O)c4cnc(C(C)NCC(=O)OCC)cn4)c3C)c2C)cn1 (stereo not shown) [Example 179, diethyl 2,2′-((((((2,2′-dimethyl-[1,1′-biphenyl]-3,3′-diyl)bis(azanediyl))bis(carbonyl))bis(pyrazine-5,2-diyl))bis(ethane-1,1-diyl))bis(azanediyl))diacetate] |
| 25 to 100 nM | Cc1c(NCc2nnc(C3(N)CCC3)s2)cccc1-c1cccc(NCc2nnc(C3(N)CCC3)s2)c1C [Example 26, N3,N3′-bis((5-(1-aminocyclobutyl)-1,3,4-thiadiazol-2-yl)methyl)-2,2′-dimethyl-[1,1′-biphenyl]-3,3′-diamine] |
| < 25 nM | N#Cc1c(NC(=O)c2nc3c(s2)CNCC3)cccc1-c1cccc(NC(=O)c2nc3c(s2)CNCC3)c1C#N [Example 74, N,N′-(2,2′-dicyano-[1,1′-biphenyl]-3,3′-diyl)bis(4,5,6,7-tetrahydrothiazolo[5,4-c]pyridine-2-carboxamide)] |
| < 25 nM | NC(=O)NCCN1CCc2nc(C(=O)N3CCc4c(-c5cccc6c5CCN6C(=O)c5nc6c(s5)CN(CCNC(N)=O)CC6)cccc43)sc2C1 [Example 134, 1,1′-((([4,4′-biindoline]-1,1′-dicarbonyl)bis(6,7-dihydrothiazolo[5,4-c]pyridine-2,5(4H)-diyl))bis(ethane-2,1-diyl))diurea] |
| < 25 nM | Cc1c(NC(=O)c2nnc3n2CCNC3)cccc1-c1cccc(NC(=O)c2nnc3n2CCNC3)c1C [Example 39, N,N′-(2,2′-dimethyl-[1,1′-biphenyl]-3,3′-diyl)bis(5,6,7,8-tetrahydro-[1,2,4]triazolo[4,3-a]pyrazine-3-carboxamide)] |
| < 25 nM | Cc1c(Nc2nccc3cc(CNCC(=O)O)cnc23)cccc1-c1cccc(Nc2nccc3cc(CN4CCC4)cnc23)c1C [Example 149, ((8-((3′-((3-(azetidin-1-ylmethyl)-1,7-naphthyridin-8-yl)amino)-2,2′-dimethyl-[1,1′-biphenyl]-3-yl)amino)-1,7-naphthyridin-3-yl)methyl)glycine] |
| < 25 nM | Cc1c(NC(=O)c2ccc3c(n2)CCNC3)cccc1-c1cccc(NC(=O)c2ccc3c(n2)CCN(CCO)C3)c1C [Example 186, N-(2,2′-dimethyl-3′-(5,6,7,8-tetrahydro-1,6-naphthyridine-2-carboxamido)-[1,1′-biphenyl]-3-yl)-6-(2-hydroxyethyl)-5,6,7,8-tetrahydro-1,6-naphthyridine-2-carboxamide] |
| 25 to 100 nM | Cc1c(NC(=O)c2nnc(C(C)N)o2)cccc1-c1cccc(NC(=O)c2nnc(C(C)N)o2)c1C (stereo not shown) [Example 19, N,N′-(2,2′-dimethyl-[1,1′-biphenyl]-3,3′-diyl)bis(5-(1-aminoethyl)-1,3,4-oxadiazole-2-carboxamide)] |
| 100 to 200 nM | Cc1c(NC(=O)c2ccc3c(n2)CCN(CC(=O)OC(C)(C)C)C3)cccc1-c1cccc(NC(=O)c2ccc3c(n2)CCN(CC(=O)OC(C)(C)C)C3)c1C [Example 172, di-tert-butyl 2,2′-((((2,2′-dimethyl-[1,1′-biphenyl]-3,3′-diyl)bis(azanediyl))bis(carbonyl))bis(7,8-dihydro-1,6-naphthyridine-2,6(5H)-diyl))diacetate] |
| < 25 nM | COC(=O)NCCNCc1cnc2c(Nc3cccc(-c4cccc(Nc5nccc6cc(CNCCNC(=O)OC)cnc56)c4C)c3C)nccc2c1 [Example 158, dimethyl ((((((2,2′-dimethyl-[1,1′-biphenyl]-3,3′-diyl)bis(azanediyl))bis(1,7-naphthyridine-8,3-diyl))bis(methylene))bis(azanediyl))bis(ethane-2,1-diyl))dicarbamate] |
| < 25 nM | Cc1c(Nc2nccc3cc(CNCC(N)=O)cnc23)cccc1-c1cccc(Nc2nccc3cc(CNCC(N)=O)cnc23)c1C [Example 144, 2,2′-(((((2,2′-dimethyl-[1,1′-biphenyl]-3,3′-diyl)bis(azanediyl))bis(1,7-naphthyridine-8,3-diyl))bis(methylene))bis(azanediyl))diacetamide] |
| < 25 nM | 1,1′-bis((6,7-dihydro-4H-512-thiazolo[5,4-c]pyridin-2-yl)methyl)-4,4′-biindoline [Example 46] |
| < 25 nM | CN(C)Cc1cnc(C(=O)N2CCc3c(-c4cccc5c4CCN5C(=O)c4ncc(CN(C)C)s4)cccc32)s1 [Example 112, [4,4′-biindoline]-1,1′-diylbis((5-((dimethylamino)methyl)thiazol-2-yl)methanone)] |
| < 25 nM | CN(CCO)Cc1cnc(C(=O)N2CCc3c(-c4cccc5c4CCN5C(=O)c4ncc(CN(C)CCO)s4)cccc32)s1 [Example 116, [4,4′-biindoline]-1,1′-diylbis((5-(((2-hydroxyethyl)(methyl)amino)methyl)thiazol-2-yl)methanone)] |
| < 25 nM | Cc1c(NC(=O)c2nc3c(s2)CN(CC#N)CC3)cccc1-c1cccc(NC(=O)c2nc3c(s2)CN(CC#N)CC3)c1C [Example 80, N,N′-(2,2′-dimethyl-[1,1′-biphenyl]-3,3′-diyl)bis(5-(cyanomethyl)-4,5,6,7-tetrahydrothiazolo[5,4-c]pyridine-2-carboxamide)] |
| < 25 nM | Cc1c(NC(=O)c2cn3c(n2)CNCC3)cccc1-c1cccc(NC(=O)c2cn3c(n2)CNCC3)c1C [Example 8, N,N′-(2,2′-dimethyl-[1,1′-biphenyl]-3,3′-diyl)bis(5,6,7,8-tetrahydroimidazo[1,2-a]pyrazine-2-carboxamide)] |
| < 25 nM | Cc1c(NC(=O)c2nnc(C3CCCN3)o2)cccc1-c1cccc(NC(=O)c2nnc(C3CCCN3)o2)c1C (stereo not shown) [Example 41, N,N′-(2,2′-dimethyl-[1,1′-biphenyl]-3,3′-diyl)bis(5-(pyrrolidin-2-yl)-1,3,4-oxadiazole-2-carboxamide)] |
| < 25 nM | Cc1c(NC(=O)c2nc3c(s2)CN(C(C)C(=O)O)CC3)cccc1-c1cccc(NC(=O)c2nc3c(s2)CN(C(C)C(=O)O)CC3)c1C (stereo not shown) [Example 79, 2,2′-((((2,2′-dimethyl-[1,1′-biphenyl]-3,3′-diyl)bis(azanediyl))bis(carbonyl))bis(6,7-dihydrothiazolo[5,4-c]pyridine-2,5(4H)-diyl))dipropionic acid] |
| < 25 nM | O=C(c1nc2c(s1)CN(CCF)CC2)N1CCc2c(-c3cccc4c3CCN4C(=O)c3nc4c(s3)CN(CCF)CC4)cccc21 [Example 87, [4,4′-biindoline]-1,1′-diylbis((5-(2-fluoroethyl)-4,5,6,7-tetrahydrothiazolo[5,4-c]pyridin-2-yl)methanone)] |
| 25 to 100 nM | O=C(c1nc2c(s1)CN(CC(F)(F)F)CC2)N1CCc2c(-c3cccc4c3CCN4C(=O)c3nc4c(s3)CN(CC(F)(F)F)CC4)cccc21 [Example 84, [4,4′-biindoline]-1,1′-diylbis((5-(2,2,2-trifluoroethyl)-4,5,6,7-tetrahydrothiazolo[5,4-c]pyridin-2-yl)methanone)] |
